Measured values taken from PMC5025054 (PLoS ONE, 2016).
Where two headings read alike, the source gives them in different places.

Experiments:
[1] = molecular target: T1, Human recombinant GSK-3β (Homo sapiens, UniProt P49841); conditions: cited from earlier work
T1 construct: purchased Millipore (Millipore Iberica S.A.U.)

[2] = test system: SH-SY5Y cells; experiment: Neuroprotection in cellular L-BMAA model (MTT cell viability); format: cell-based; conditions: L-BMAA 10 mM, inhibitors 10 μM, 24 h
Method: SH-SY5Y cells on a 96 well plate ere incubated with L-BMAA (10 mM) with or without inhibitors (10 μM). A control experiment was set at the same time without L-BMAA or inhibitors. After 24 h a MTT was performed to determine cell viability using known procedures in the literature. Experiment was performed in triplicate.
Mechanistically and structurally diverse GSK-3 inhibitors were tested in a cellular model of L-BMAA to study whether GSK-3 inhibition was implicated in neuroprotection at L-BMAA damage, using a forward chemical genetic approach. […] Cells were incubated with L-BMAA together with or without inhibitors for 24 h and cell viability was determined.

[3] = test system: LC3-II and P-mTOR; experiment: Analysis of LC3-II and P-mTOR by western-blot (autophagy) in motor cortex and lumbar spinal cord; format: in vivo, Rattus norvegicus
Method: The entire brain and the lumbar spinal cord were rapidly removed and stored at -80°C.
To analyse LC3-II and P-mTOR by western-blot, 100 mg of motor cortex and lumbar spinal cord of each animal were homogenized in a RIPA buffer: 50 mM Tris–HCl pH 7.4, 50 mM NaCl, Nonidet P-40 1%, 1 mM EDTA, 1 mM PMSF, 1 mg/mL aprotinin, […] leupeptin, 1 mg/mL pepstatin, at a rate of […] of tissue. The mixture was sonicated for 2 min with 2 s pulses of sonication and 2 s off at amplitude of 40%. Once the samples were homogenized, the evaluation and protein electrophoresis was performed. The protocol was adapted from Zhang et al as described in Muñoz-Sáez et al.
Before the electrophoresis, the protein concentrations of all samples were determined by Bradford assay (Sigma–Aldrich Inc., St. Louis, MO, USA; Bradford, 1976).
Electrophoresis for protein separation was performed by SDS-PAGE. In all cases, the concentrating gel contained 6% polyacrylamide. Regarding LC3-II, the percentage of polyacrylamide was 12% for the separating gel and for P-mTOR an 8% polyacrylamide separating gel was used. Subsequently, proteins from the gels were transferred to a nitrocellulose membrane (AmershamTM HybondTM–ECL) in a wet system at 10 V o/n and 4°C. Membranes were incubated with following primary antibodies: a rabbit polyclonal anti-tubulin β-III (Novus Biologicals, Littleton, CO, USA), a rabbit polyclonal anti-LC3-II (Novus Biologicals, Littleton, CO, USA) and rabbit polyclonal anti-mTOR (Phospho-Ser2448) (Novus Biologicals, Littleton, CO, USA). As a secondary antibody, we applied Donkey anti-rabbit IgG-Fc Horseradish Peroxidase (HRP) (Bethyl Laboratories, Montgomery, TX, USA). All the antibodies were used according to the manufacturers’ specifications. Proteins were detected by enhanced chemiluminescence. Digital images were acquired using a Fujifilm Intelligent Darkbox II (Fuji Systems USA, Stamford, CT) and the image processing for quantification was conducted with free image processing software Image J.

[4] = Weight progression of treated rats; format: in vivo, Rattus norvegicus; conditions: alone or co-administered, VP2.51 2.5 mg/Kg i.p. 15 days, L-BMAA 300 mg/kg i.p. 5 days, 100 days
Text: After this time the animals were sacrificed.

[5] = test system: male rats, Wistar strain; experiment: Neurological evaluation in L-BMAA motor neuron disease model
Method: Assays were carried out using male rats of Rattus norvegicus, albino variety, Wistar strain, that were supplied by Harlan Interfauna Ibérica S.A. (Barcelona, Spain). Animals were kept at constant temperature (21 ± 1°C) on a reversed light/dark cycle with diets and water ad libitum (A04 commercial rodent diet, Panlab, Barcelona, Spain). […] Animal’s health was monitored by weight control. […] Animals were sacrificed at the established time point under general anaesthesia with isoflurane (ISOFLO®, Abbott Laboratories, Abbott Park, IL, USA).
At weaning time (postnatal day 21) animals, with a weight between 45 and 55 g, were intraperitoneally (i.p.) injected with 300 mg/kg of L-BMAA (L-BMAA hydrochloride, Sigma-Aldrich, Ref. B107), during 5 consecutive days. The injected solution was composed by 50 mg of L-BMAA dissolved in 500 μl of PBS (0.1 mg / μl).
VP2.51 was dissolved in a stock solution of DMSO (dimethyl sulfoxide, Sigma) at 100 mg/mL. This stock was used to prepare a final solution of 1 mg/mL in PBS with 5% DMSO and 5% Tween® 80 (Sigma). Rats were injected i.p. 2.5 mg/Kg beginning at two different times: on the first day after treatment with L-BMAA (PT1) and on day post-treatment 30 (PT30). Injection treatment was performed for 15 consecutive days.
In summary, 6 different groups of 12 animals each were used: Control (only PBS injected), L-BMAA, L-BMAA+VP2.51 PT1, VP2.51 PT1, L-BMAA+VP2.51 PT30, VP2.51 PT30. Weight monitoring was performed every day during 100 days. After this time the animals were sacrificed.
The neurological tests were carried out blindly as described by de Munck et al [13], once a week during 100 days. Briefly, the neurological assess was carried out with three different tests: ambulation, tail suspension test and strength test. […] In the tail suspension test, the rat was suspended by the tail at 10 cm over the surface. The ability to keep the hind limbs in the normal neutral position adopted by rodents in such situation, i.e., describing a “T” was evaluated, together with the stiffness of the limbs and the inter-limb coordination during kicking. The strength test and was carried out setting down the rats on a flat surface, both forelegs and hind limbs on it, while pulling the tail softly to the opposite direction of animal usual move course. The ability the rats had to drag and offer resistance, assessing their faculty to kept hind limbs under the body without spreading their legs away from it was observed. The neurological evaluation was established in a scale comprised between 0 and 10, where 0 is the evaluation given to animals which are not symptomatic, control animals, and 10 belongs to a state of total functional loss of the hindlimbs and postural control.

[6] = In vitro parallel artificial membrane permeability assay (PAMPA-BBB); format: in vitro ADME, porcine; conditions: for Pe: PBS:DMSO (95:5), 4 h at 25°C, mean ± SD of 3 independent experiments
Method: Prediction of the brain penetration was evaluated using a parallel artificial membrane permeability assay (PAMPA). Ten commercial drugs, phosphate buffer saline solution at pH 7.4 (PBS), DMSO and dodecane were purchased from Sigma, Across organics, Aldrich and Fluka. […] Filter PDVF membrane units (diameter 30 mm, pore size 0.45 μm) from Symta were used to filter the samples. A 96-well plate UV reader (Thermoscientific, Multiskan spectrum) was used for the UV measurements. Test compounds were dissolved in DMSO (250 μL). 25 μL of this compound stock solution was taken and 225 μL of DMSO and 4750 μL of PBS pH 7.4 buffer were added to reach 5% of DMSO concentration in the experiment. These solutions were filtered. The acceptor 96-well microplate was filled with 180 μL of PBS:DMSO (95:5). The donor 96-well plate was coated with 4 μL of porcine brain lipid in dodecane (20 mg mL^-1) and after 5 minutes, 180 μL of each compound solution was added. […] Then the donor plate was carefully put on the acceptor plate to form a “sandwich”, which was left undisturbed for 4 h at 25°C. During this time the compounds diffused from the donor plate through the brain lipid membrane into the acceptor plate. After incubation, the donor plate was removed. The concentration of VP2.51 and commercial drugs in the acceptor and the donor wells was determined by UV plate reader. Every sample was analyzed at three to five wavelengths, in 3 wells and in three independent runs. […] Validation was made comparing the reported permeabilities values of commercial drugs with the experimental data obtained employing this methodology.
Finally, the ability to cross the blood-brain barrier (BBB) was determined. […] VP2.51 permeability through the BBB was evaluated by a parallel artificial membrane permeability assay (PAMPA) using porcine brain membrane lipid and ten commercial drugs following the methodology described by Di et al.

[7] = test system: cytochromes P450 family; parameters: method as in earlier work; conditions: cited from earlier work
[8] = test system: panel of fifty different human kinases; conditions: fixed concentration 10 μM
Method: Fig 1 Biological activity of VP2.51 on GSK-3 and other protein kinases. […] B) Kinetic GSK-3 inhibition data determined for VP2.51. ATP concentrations in the reaction mixture varied from 1 to 50 μM. […] Each point is the mean of two different experiments, each one analyzed in duplicate. C) Kinase profiling of VP2.51 on human recombinant kinases. The percentage (%) of kinase activity after the treatment with a fixed concentration (10 μM) of the compound is shown.

[9] = molecular target: T1, Human recombinant GSK-3β; experiment: Inhibition of GSK-3 (Kinase-Glo luminescent assay; ADP-Glo for kinetics); format: biochemical
Method: Human recombinant GSK-3β was purchased from Millipore (Millipore Iberica S.A.U.). The prephosphorylated polypeptide substrate was purchased from Millipore (Millipore Iberica S.A.U.). Kinase-Glo Luminescent Kinase Assay was obtained from Promega (Promega Biotech Ibérica, SL). ATP and all other reagents were from Sigma-Aldrich (St. Louis, MO). Assay buffer contained 50 mM HEPES (pH 7.5), 1 mM EDTA, 1 mM EGTA, and 15 mM magnesium acetate.
The method of Baki et al was followed to analyse the inhibition of GSK-3β. Kinase-Glo assays were performed in assay buffer using black 96-well plates. […] After 30 min incubation at 30°C the enzymatic reaction was stopped with 40 μl of Kinase-Glo reagent. Glo-type luminescence was recorded after 10 min using a FLUOstar Optima (BMG Labtechnologies GmbH, Offenburg, Germany) multimode reader. The activity is proportional to the difference of the total and consumed ATP. The inhibitory activities were calculated on the basis of maximal activities measured in the absence of inhibitor. […] To investigate the inhibitory mechanism of VP2.51 on GSK-3β, a kinetic study varying both ATP (from 1 to 50 μM) and VP.251 (from 0.5 to 1 μM) concentrations were performed using the ADP-Glo Kinase Assay.
To study the type of enzymatic inhibition for the compounds, measurements after several times of incubation of the enzyme with the inhibitor VP2.51 were performed.

[10] = molecular target: casein kinase-1δ (CK-1δ) (Homo sapiens, UniProt P48730); experiment: CK-1δ inhibition following a described protocol; format: biochemical
[11] = test system: multiple sclerosis model; parameters: method as in PMID 23606540; conditions: cited from earlier work

T1 sequence (P49841 whole entry): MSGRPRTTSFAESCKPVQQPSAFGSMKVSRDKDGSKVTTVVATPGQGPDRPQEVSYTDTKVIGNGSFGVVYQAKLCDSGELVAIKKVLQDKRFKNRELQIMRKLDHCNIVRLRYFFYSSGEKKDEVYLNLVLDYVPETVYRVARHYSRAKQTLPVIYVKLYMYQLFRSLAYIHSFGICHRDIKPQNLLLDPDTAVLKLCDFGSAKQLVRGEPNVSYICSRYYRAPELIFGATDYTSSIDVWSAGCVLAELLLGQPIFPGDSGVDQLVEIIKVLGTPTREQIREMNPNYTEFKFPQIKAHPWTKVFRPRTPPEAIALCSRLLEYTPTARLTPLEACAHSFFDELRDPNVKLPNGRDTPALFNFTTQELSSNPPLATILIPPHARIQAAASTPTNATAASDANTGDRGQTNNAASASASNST
Sequence of casein kinase-1δ (CK-1δ) (P48730 whole entry): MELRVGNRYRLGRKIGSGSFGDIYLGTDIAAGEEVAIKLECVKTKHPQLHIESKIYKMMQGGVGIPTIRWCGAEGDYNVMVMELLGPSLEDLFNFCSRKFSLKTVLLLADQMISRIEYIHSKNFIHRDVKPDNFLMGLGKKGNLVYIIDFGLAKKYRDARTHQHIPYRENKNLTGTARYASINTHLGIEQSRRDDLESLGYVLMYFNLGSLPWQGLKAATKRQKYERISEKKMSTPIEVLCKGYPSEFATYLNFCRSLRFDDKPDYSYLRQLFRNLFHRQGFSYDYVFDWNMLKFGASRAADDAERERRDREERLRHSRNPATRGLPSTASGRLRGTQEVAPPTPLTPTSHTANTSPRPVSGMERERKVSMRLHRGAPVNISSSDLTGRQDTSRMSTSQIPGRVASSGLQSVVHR

## CC(=O)C1=C(c2cn(C)c3ccccc23)C(=O)NC1=O [INH-38]
[1]
  Kind of GSK-3 inhibition: ATP-competitive inhibitors
[2]
  Cell viability, protection from L-BMAA damage: protect cells from L-BMAA damage

## c1ccc(-c2n/c(=N/CCN3CCOCC3)sn2-c2ccccc2)cc1 [ITDZ 55]
[1]
  Kind of GSK-3 inhibition: substrate competitive inhibitor
[2]
  Cell viability, protection from L-BMAA damage: protect cells from L-BMAA damage

## CNC[C@H](N)C(=O)O [L-BMAA, β-N-methylamino-L-alanine, reference compound]
[3]; L-BMAA treated rats, t = 3.257, p = 0.031
  P-mTOR levels in lumbar spinal cord vs control animals: significantly higher
[3]; L-BMAA treated rats, t = 5.889, p = 0.0042
  P-mTOR levels in motor cortex vs control animals: significantly higher
[3]; L-BMAA treated rats, t = 5.969, p = 0.027
  LC3-II levels in motor cortex vs control animals: significantly higher
[3]; L-BMAA treated rats, t = 46.85, p = 0.0005
  LC3-II levels in lumbar spinal cord vs control animals: significantly higher
[4]
  Effect on weight progression / physical development: do not affect physical development
[5]; rats treated with L-BMAA only, 300 mg/kg i.p. 5 consecutive days
  neurological evaluation score (scale 0-10): 7 points

## CN1C(C(=O)Nc2ccccn2)=C(O)c2ccccc2S1(=O)=O [Piroxicam, reference compound]
[6]; PAMPA-BBB
  Pe: 1.7 ± 0.3 10^-6 cm s^-1

## CN(C)CCCN1c2ccccc2Sc2ccccc21 [Promazine, reference compound]
[6]; PAMPA-BBB
  Pe: 8.9 ± 1.0 10^-6 cm s^-1

## CCCCCCCCCCCC(=O)NNC(=O)c1c(O)c2ccccc2n(CC)c1=O [VP0.7]
[1]; does not compete with ATP nor substrate
  Kind of GSK-3 inhibition: allosteric inhibitor
[2]
  Cell viability, protection from L-BMAA damage: protect cells from L-BMAA damage

## COc1ccc(CNC(=O)Nc2nc(C)c(C(C)=O)s2)cc1 [VP2.51, 1-(5-Acetyl-4-methyl-1,3-thiazol-2-yl)-3-(4-methoxybenzyl)urea]
[7]
  Inhibition of cytochromes P450 family: weak or partial inhibitor
[2]
  Cell viability, protection from L-BMAA damage: protect cells from L-BMAA damage
[8]
  Kinase selectivity profile: targeting only both isoforms of GSK-3, α and β, and with less potency, casein kinase-1δ (CK-1δ)
[9]; ATP 1 to 50 μM, GS-2 12.5 μM, ADP-Glo
  Inhibitory mechanism (kinetic experiments): competes in vitro with ATP
[9]; VP2.51 at 1 and 2 μM, several times of incubation with enzyme
  Type of enzymatic inhibition (time dependent experiments): reversible inhibition
[9]; human recombinant enzyme, 1 μM ATP, 30 min, 30°C, read-out: GSK-3 inhibitory activity in vitro IC50
  IC50: 0.62 ± 0.15 µM
[10]
  IC50: 7.28 ± 0.87 µM
[10]; fold over GSK-3 inhibition
  CK-1δ IC50 relative to GSK-3 IC50: tenfold
[3]; L-BMAA+VP2.51 at PT1
  P-mTOR level in lumbar spinal cord vs L-BMAA treated animals: lower non-significant
[3]; L-BMAA+VP2.51 at PT1, t = 3.547, p <0.05
  LC3-II levels in motor cortex vs L-BMAA treated animals: significantly lower
[3]; L-BMAA+VP2.51 at PT1, t = 5.083, p <0.01
  LC3-II levels in lumbar spinal cord vs L-BMAA treated animals: lower
[3]; L-BMAA+VP2.51 at PT1, t = 7.223, p <0.001
  P-mTOR levels in motor cortex vs L-BMAA treated animals: significantly lower
[4]
  Effect on weight progression / physical development: do not affect physical development
[11]
  Efficacy in multiple sclerosis model: effective
[5]; L-BMAA + VP2.51 PT1 (2.5 mg/Kg i.p. 15 days from day 1 after L-BMAA), F = 89.34, p <0.0001
  Evolution of neurological evaluation vs L-BMAA only group: markedly improved
[5]; L-BMAA + VP2.51 PT30 (2.5 mg/Kg i.p. 15 days from day 30 post-treatment)
  Evolution of neurological evaluation vs L-BMAA only group: did not show significant differences
[5]; rats treated exclusively with VP2.51 (PT1 and PT30), 2.5 mg/Kg i.p. 15 days
  neurological evaluation score (scale 0-10): zero
[5]; rats, VP2.51 2.5 mg/Kg i.p. 15 days
  Neurological pathologies or observable toxicities: does not promote either neurological pathologies or observable toxicities
[6]; PAMPA-BBB
  BBB prediction: CNS + (CNS + when they present a permeability > 4.15 x 10^−6 cm s^-1)
  Pe: 7.6 ± 0.4 10^-6 cm s^-1
[6]; pig, pH 7.4, PAMPA, porcine brain membrane lipid, read-out: effective permeability
  Papp at 4 h: 7.6 ± 0.4 ×10⁻⁶ cm/s
